Test: UV-VIS spectroscopy during titration with sodium hydroxide (pH dependence of absorbance)
Format: physicochemical
Details: 0.25 g in 100 mL deionized water, titrated with 0.1 M sodium hydroxide, UV-VIS at every 0.5 pH
Description: FIG. 8 comprises a graph illustrating maximum absorbance as a function of pH for a compound of the invention.
Triguaiacol (0.25 g, Example 4) was dissolved in 100 mL of deionized water. The mixture was titrated with 0.1 M sodium hydroxide solution. At every 0.5 pH, UV-VIS spectroscopy was performed on a portion of the mixture. The wavelength in the absorbance spectrum where the absorbance is at a maximum was measured.

- wavelength in the absorbance spectrum where the absorbance is at a maximum: decrease with increasing pH
Structure (SMILES): COc1cc(C(c2ccc(O)c(OC)c2)c2ccc(O)c(OC)c2)ccc1O [Triguaiacol, 4,4′,4″-methanetriyltris(2-methoxyphenol)]
